Where “and” joins values, the source holds several entries; their conditions need not be identical. Identical values can stand only once.

One series relates to THP-1 cells. In words: ELISA of IFN-β protein levels in THP-1 culture supernatants. As to conditions: 4 h. Type of series: cell-based, human. As to the method:
Enzyme-Linked Immunosorbent Assay (ELISA). THP-1 cells were incubated with the compounds for 4 h. Cell culture supernatants were then analyzed via ELISA for human IFN-β levels (ABclonal, Woburn, MA, USA, catalogue no. RK01630) according to the manufacturer’s instructions. […]
(§1) expression levels of IFN-β were assessed by real-time quantitative PCR (qPCR) under the treatment of prodrug 9 (10 μM), 3′,3′-c-di-dAMP (100 μM), 2′,3′-cGAMP (100 μM) and ADU-S100 (10 μM) for 4 h.
Figure S3. Prodrug 9 stimulated the production of IFN-β in THP-1 cells. Under the treatment of prodrug […]
levels of IFN-β were assessed by an enzyme-linked immunosorbent assay (ELISA).
(also on this page, place not known: t reatment -S100 9 3',3'-c-di-dAMPADU-S100 IFN-β/β-actin IFN-β in Culture Medium (pg/ml)) […]
For orientation: An ELISA detects its analyte on a solid surface through an enzyme-linked reagent.

The subject of the next series is THP1-Lucia cells. In words: THP1-Lucia cell-based luciferase reporter assay. As to the method:
THP1-Lucia cell-based reporter assay. THP1-Lucia cells were seeded into a 24-well plate at a density of 5 × 10^4 cells/well. […] Finally, the medium was collected to determine the luciferase activity using QUANTI-Luc (InvivoGen, San Diego, CA, USA) according to the manufacturer′s instruction to calculate the EC50 values of the tested compounds. The results are expressed as the mean ± SD from three independent experiments. Emax values were normalized to the response induced by 2′,3′-cGAMP in each assay and expressed as a mean percentage ± SD from three independent experiments. The THP1-Lucia cell line was obtained from Prof. Junmin Quan from Peking University (Beijing, China).
Figure 5 The luciferase-based assay in the THP1-Lucia reporter cell line. (a) EC50 values represent the mean (±SD) of three independent experiments. (b) Emax values represent the mean (±SD) of three independent experiments.
A general note: In a reporter assay the amount or activity of a reporter protein is the signal.

A short description of series [1]: Release of parent dCDN from prodrug 9 in cell lysates (HPLC). The conditions noted are these: 100 μM prodrug, 37 °C. Type of series: in vitro ADME. As for the experimental part:
To analyze the reduction dependency, we performed the in vitro cleavage test by incubating prodrug 9 with a reductive substance such as GSH or DTT and cell lysates at 37 °C and then determined the change with HPLC. […] As the reductive substance or cell lysates were added, the peak for prodrug 9 disappeared and the new peaks at 1.2 min appeared in 0.5 h and 2 h, respectively. The released parent dCDN was also confirmed with 3′,3′-c-di-dAMP through UPLC-MS (Figure S1).
Prodrug 9 release parent drug initiated by cell lysates, DTT, and GSH. HEK 293T cells were plated in a 6-well plate at a density of 10^6 cell per well. After 48 h, the culture media was removed and washed with 500 μL PBS buffer. Cells were collected into 1.5 mL microtubes. An amount of 200 μL weak RIPA lysis buffer containing 1 mM protease inhibitor PMSF (LEAGENE, Trenton, NJ, USA) was added to each tube for 30 min. After centrifugation at 13,000 rpm for 10 min, the supernatant (180 μL) was transferred into a new tube. An amount of 100 μM prodrug 9 was added into the cell lysate (60 μL) in an air-bath incubator at 37 °C. […]
Figure 3 Parent dCDNs release in GSH, DTT (a), and cell lysates (b). An amount of 100 μM prodrug 9 was added into the 10 mM GSH, 10 mM DTT, and cell lysates for various times (0.5 h and 2 h) at 37 °C and analyzed with HPLC (Agilent 1260, Santa Clara, CA, USA).

A further series deals with CT-26 cells. The experiment in a line: RT-qPCR of IFN-β mRNA in CT-26 cells. As to conditions: CT-26, prodrug 9 and ADU-S100 10 μM, CDNs 100 μM, 4 h. In kind it is cell-based. As for the experimental part: Real-time quantitative PCR (RT-qPCR). The mRNA expression levels of diverse cytokines were measured using quantitative RT-PCR (RT-qPCR) assays. THP-1 cells or CT26 cells were incubated with the compounds for 4 h, subsequently harvested for RNA isolation according to the manufacturer’s instructions of RNApure Tissue&Cell Kit (DNase I) (CWBIO, Cambridge, MA, USA catalogue no. CW0560S). Next, 1 μg RNA was reversely transcribed to cDNA by TransScript All-in-One First-Strand cDNA Synthesis SuperMix for qPCR (One-Step gDNA Removal) (TransGen, Beijing, China). To examine the mRNA levels, real-time PCR was performed in a CFX96 Real-Time PCR system (Bio-RAD, Hercules, CA, USA) using PerfectStart Green qPCR Super Mix (TransGen) and primers (Sangon Biotech, Shanghai, China). The expression level was calculated according to the formula (2^−∆∆Ct) using the GAPDH or β-actin as the internal reference gene and the relative gene expression fold was normalized to the DMSO-treated cells. The THP-1 and CT26 cell lines were obtained from American Type Culture Collection (ATCC, Manassas, VA, USA). […]
as §1
Figure S3. […]
levels of IFN-β were assessed by an enzyme-linked immunosorbent assay (ELISA). […]
(In general: In qPCR the cycle at which signal appears reflects the starting amount.)

`Nc1ncnc2c1ncn2C1CC2OP(=O)(OCCSSc3ccccn3)OCC3OC(n4cnc5c(N)ncnc54)CC3OP(=O)(OCCSSc3ccccn3)OCC2O1` (centres unmarked) [prodrug 9]: the “IFN-β protein level, fold compared to 2′,3′-cGAMP” value in the series with THP-1 cells (THP-1, prodrug 9 10 μM vs 2′,3′-cGAMP 100 μM) is “approximately 66 fold”. For the same molecule, the “IFN-β protein level, fold compared to 3′,3′-c-di-dAMP” value in the series with THP-1 cells (THP-1, prodrug 9 10 μM vs 3′,3′-c-di-dAMP 100 μM) is roughly 4.3 fold. The “IFN-β protein level, fold compared to ADU-S100” value in the series with THP-1 cells (THP-1, prodrug 9 10 μM vs ADU-S100 10 μM) is roughly 5.6 fold. For the same molecule, in the series with THP1-Lucia cells, the “fold activity (EC50) vs 3′,3′-c-di-dAMP” value is listed as roughly 43 fold; the “fold activity (EC50) vs ADU-S100” value was ~3.0 fold and 3 fold; the “maximum activation fold (Emax) relative to 2′,3′-cGAMP” value is “approximately 1.8 fold”; the “maximum activation fold (Emax) relative to 3′,3′-c-di-dAMP” value was roughly 1.9 fold. For the same molecule, in the series on THP1-Lucia cells, the “maximum activation fold (Emax) relative to ADU-S100” value is listed as roughly 1.4 fold. This molecule came in with an EC50 in the series on THP1-Lucia cells (24 h) of 960 nM. In series [1], the “time at which prodrug peak disappeared and parent dCDN peak appeared” value stood at 2 h. For the same molecule, the “induction of IFN-β transcription in CT-26 cells” value with CT-26 cells is “did not”.

A word on the EC50: it is the concentration that produces a half-maximal response. Low values mean higher potency in that assay, high ones lower potency in that assay.

The record behind these values is publication PMC10778758, “Dithioethanol (DTE)-Conjugated Deoxyribose Cyclic Dinucleotide Prodrugs (DTE-dCDNs) as STING Agonist” (International Journal of Molecular Sciences, 2023).
